Assay results reported in patent US9540389B2, “Antimicrobial potentiators” (priority 2013, dated 2017).
≈ marks a conversion by molar mass, not a printed value. Like-named read-outs stand apart in the source and are kept apart here.

Key:
[1] = system: Escherichia coli AB1157 (WT); test: Checkerboard MIC assay (antibacterial agent + MBX2319); assay type: cell-based; details: for MIC: Escherichia coli
Text: (§1) • Strains and Reagents. The following strains were obtained from the Keio collection (Baba, et al.: Construction of Escherichia coli K-12 in-frame, single-gene knockout mutants: the Keio collection. In Mol Syst Biol, vol. 2, pp. 2006 0008, (2006)): JW0451 (ΔacrB::kan), JW5503 (ΔtolC::kan), JW3234 (ΔacrF::kan), JW2661 (ΔemrB::kan), JW0863 (ΔmacB::kan). The deletion mutations in each of these strains were transferred to AB1157 using P1 phage transduction (see Table 1). The construction of the E. coli cell-based reporter strain (SOS-XXX) that was used for high throughput screening is described in detail in the supplementary information. […] Irgasan was a generous gift from Ciba Speciality Chemicals, Inc. (High Point, N.C.). Hoechst 33342 (H33342) was purchased from Molecular Probes (Eugene, Oreg.). […] Luria Broth (Miller) and agar were purchased as prepared dehydrated media from Becton Dickenson (Franklin Lakes, N.J.). The compound libraries used in high-throughput screens were purchased from Chembridge (San Diego, Calif.), ChemDiv (San Diego, Calif.), and TimTec (Newark, Del.). MBX2319 was synthesized by Microbiotix, Inc. • Antibacterial Activity Assays. The minimal inhibitory concentration (MIC) of antibacterial agents and biocides were determined using the microbroth dilution method essentially as described in the CLSI protocol M7-A7 (CLSI: Method for dilution antimicrobial susceptibility testing for bacteria that grow aerobically; Approved standard-document M7-A7. In Clinical and Laboratory Standards Institute document M7-A7, Clinical and Laboratory Standards Institute, Wayne, Pa., (2006)), with the following exceptions. LB media was used instead of MHB. […] The final concentration of DMSO in each assay was 2%. […] MIC assays were performed in triplicate and the geometric mean was calculated. Checkerboard MIC assays using an EPI and an antibacterial agent were performed essentially as described (Pillai, et al.: Antimicrobial Combinations. In Antibiotics in Laboratory Medicine, ed. by V. Lorian, pp. 365-440, Lippincott Williams & Wilkins, Philadelphia, Pa., (2005)), with the same modifications used for the MIC assays described above. • Time-Kill Assays. Killing curve assays were performed essentially as described (Pillai, et al.: Antimicrobial Combinations. In Antibiotics in Laboratory Medicine, ed. by V. Lorian, pp. 365-440, Lippincott Williams & Wilkins, Philadelphia, Pa., (2005)). Exponential bacterial cultures grown in LB were diluted to a cell density of ˜1×10^7 in LB followed by addition of CIP and/or an EPI. Viability was monitored over 2-4 hours by making serial dilutions in saline and spotting 5 μl of each dilution onto the surface of an LB agar plate in triplicate. Colonies were counted after the plates were incubated at 37° C. for 16-18 hr, colony forming units (CFU) per ml were calculated, and the average and standard deviation for the three replicates was determined. For treatments that decreased CFU/ml below the limit of detection for the spot plating method, the 100 μl samples were diluted into 5 ml LB top agar, were poured onto LB agar plates, and incubated for 18 hr at 37° C. To calculate the fraction of the control for each sample, the average CFU/ml values for treated samples were divided by those from the same sample at 0 h (time=0). Each experiment was repeated at least three times, and a representative experiment is shown. • H33342 Accumulation Assay. The rate of accumulation of the fluorescent dye Hoechst 33342 (H33342), which is a substrate of a wide variety of bacterial efflux pumps (van den Berg van Saparoea, et al., Biochemistry, vol. 44, pp. 16931-16938, (2005)), can be used to estimate the activity of the major efflux pumps in E. coli and many other bacterial species. The H33342 accumulation assay was used to evaluate the effect of EPIs on the activity of the AcrAB-TolC efflux pump in several bacterial species essentially as described (Coldham, et al., J Antimicrob Chemother, vol. 65, pp. 1655-1663, (2010)). […]

[2] = system: Escherichia coli AB1157 ΔacrB; test: as above; assay type: cell-based; details: for MIC: Escherichia coli
Text: as §1

[3] = system: Escherichia coli AB1157 ΔacrF; test: as above; assay type: cell-based; details: for MIC: Escherichia coli
Text: as §1

[4] = system: Escherichia coli AB1157 ΔtolC; test: as above; assay type: cell-based; details: for MIC: Escherichia coli
Text: as §1

[5] = system: Escherichia coli 285 (AB1157, CIPR, overexpresses efflux); test: microbe, parasite or virus in culture; assay type: cell-based; details: for MIC: Escherichia coli
Text: as §1

[6] = system: Escherichia coli 287 (AB1157, CIPR, overexpresses efflux); test: microbe, parasite or virus in culture; assay type: cell-based; details: for MIC: Escherichia coli
Text: as §1

[7] = H33342 accumulation assay; assay type: cell-based, Pseudomonas aeruginosa ATCC 27835; details: P. aeruginosa; 25 μM
[8] = Solubility in phosphate buffers; assay type: physicochemical; details: phosphate buffer, aqueous buffer, read-out: solubility limit
AcrAB-TolC efflux pump = AcrAB-TolC efflux pump (Escherichia coli, UniProt P31224); test: H33342 accumulation assay; assay type: cell-based, Escherichia coli 287; design: endogenous in cells; host or cells: E. coli strains 285 and 287 (ciprofloxacin-resistant mutants of AB1157); details: hyper-efflux strain 287
AcrAB-TolC efflux pump, sequence (P02930 23-493): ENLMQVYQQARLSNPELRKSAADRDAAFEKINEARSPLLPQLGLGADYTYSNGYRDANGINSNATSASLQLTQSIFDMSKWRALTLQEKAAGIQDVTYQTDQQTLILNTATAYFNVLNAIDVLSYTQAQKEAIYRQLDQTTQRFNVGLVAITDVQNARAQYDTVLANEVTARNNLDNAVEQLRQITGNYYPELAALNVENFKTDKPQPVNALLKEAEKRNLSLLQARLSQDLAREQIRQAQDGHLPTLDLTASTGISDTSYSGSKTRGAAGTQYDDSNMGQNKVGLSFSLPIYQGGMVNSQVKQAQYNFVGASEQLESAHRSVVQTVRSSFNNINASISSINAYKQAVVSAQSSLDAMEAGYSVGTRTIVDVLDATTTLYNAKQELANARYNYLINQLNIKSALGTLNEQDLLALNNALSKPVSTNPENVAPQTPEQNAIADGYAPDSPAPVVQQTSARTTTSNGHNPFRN
AcrAB-TolC efflux pump, sequence (P0AE06 25-397, further chain): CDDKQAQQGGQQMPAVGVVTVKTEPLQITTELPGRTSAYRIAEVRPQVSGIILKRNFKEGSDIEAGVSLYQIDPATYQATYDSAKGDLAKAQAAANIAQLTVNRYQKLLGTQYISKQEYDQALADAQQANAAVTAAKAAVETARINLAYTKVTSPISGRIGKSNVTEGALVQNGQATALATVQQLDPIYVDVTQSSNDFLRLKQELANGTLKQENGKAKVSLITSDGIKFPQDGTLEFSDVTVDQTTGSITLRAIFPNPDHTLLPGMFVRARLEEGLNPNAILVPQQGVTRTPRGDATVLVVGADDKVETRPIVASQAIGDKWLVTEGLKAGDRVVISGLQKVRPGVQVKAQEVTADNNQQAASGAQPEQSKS
AcrAB-TolC efflux pump, sequence (P31224 whole entry): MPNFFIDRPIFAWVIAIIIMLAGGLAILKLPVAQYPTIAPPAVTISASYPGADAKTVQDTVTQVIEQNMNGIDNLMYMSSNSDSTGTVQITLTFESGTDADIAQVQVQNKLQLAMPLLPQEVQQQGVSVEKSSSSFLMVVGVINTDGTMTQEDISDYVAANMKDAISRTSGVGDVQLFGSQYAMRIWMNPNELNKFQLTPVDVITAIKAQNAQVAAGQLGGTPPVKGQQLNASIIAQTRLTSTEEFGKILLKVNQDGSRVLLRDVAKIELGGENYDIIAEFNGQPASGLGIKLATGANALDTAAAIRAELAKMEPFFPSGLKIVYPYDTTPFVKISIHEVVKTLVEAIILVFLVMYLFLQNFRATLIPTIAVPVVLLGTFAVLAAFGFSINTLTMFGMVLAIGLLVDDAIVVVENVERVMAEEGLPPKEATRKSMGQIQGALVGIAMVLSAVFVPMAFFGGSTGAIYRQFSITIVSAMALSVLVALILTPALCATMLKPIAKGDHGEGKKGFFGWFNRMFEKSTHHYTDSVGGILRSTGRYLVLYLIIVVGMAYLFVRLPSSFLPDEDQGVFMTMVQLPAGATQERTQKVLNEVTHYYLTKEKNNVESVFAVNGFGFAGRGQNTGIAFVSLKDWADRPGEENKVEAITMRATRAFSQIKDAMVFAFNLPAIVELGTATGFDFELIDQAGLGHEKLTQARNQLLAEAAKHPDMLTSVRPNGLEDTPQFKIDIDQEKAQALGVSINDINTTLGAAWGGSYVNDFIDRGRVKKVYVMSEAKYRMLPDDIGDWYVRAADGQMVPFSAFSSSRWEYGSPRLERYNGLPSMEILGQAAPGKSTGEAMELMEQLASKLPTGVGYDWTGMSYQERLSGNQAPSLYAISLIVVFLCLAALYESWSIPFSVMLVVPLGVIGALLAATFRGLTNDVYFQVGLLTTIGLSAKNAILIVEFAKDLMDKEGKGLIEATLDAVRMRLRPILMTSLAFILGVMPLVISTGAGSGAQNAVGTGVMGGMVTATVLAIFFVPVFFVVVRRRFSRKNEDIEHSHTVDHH

[9] = system: Escherichia coli AB1157 ΔacrB; test: MIC assay (microbroth dilution); assay type: cell-based
Text: as §1

[10] = read-out: MIC (μg/ml) with MBX2319 at concn (μM) of: 0

Compound: CC1(C)Cc2c(C#N)c(SCCc3ccccc3)nc(N3CCOCC3)c2CO1 [MBX2319]
- MIC ([1]; MBX2319 alone, strain WT, read-out: MIC (μM) MBX2319): ≥ 100 µM
- decrease of the MIC of CIP by MBX2319 ([1]; checkerboard, E. coli AB1157, ciprofloxacin): 2 fold
- decrease of the MIC of LEV by MBX2319 ([1]; checkerboard, E. coli AB1157, levofloxacin): 4 fold
- decrease of the MIC of PIP by MBX2319 ([1]; checkerboard, E. coli AB1157, piperacillin): 8 fold
- MIC ([2]; read-out: MIC (μM) MBX2319): ≥ 100 µM
- MIC ([3]; read-out: MIC (μM) MBX2319): ≥ 100 µM
- MIC ([4]; read-out: MIC (μM) MBX2319): ≥ 100 µM
- potentiation of the antibacterial activity of CIP, LEV, and PIP ([5]; E. coli strain 285): 4-8 fold
- MIC ([5]; read-out: MIC (μM) MBX2319): ≥ 100 µM
- potentiation of the antibacterial activity of CIP, LEV, and PIP ([6]; E. coli strain 287): 4-8 fold
- MIC ([6]; read-out: MIC (μM) MBX2319): ≥ 100 µM
- H33342 accumulation [7]: weak activity
- solubility [8]: 15 to 20 µM (≈ 6.14 to 8.19 µg/mL)
- H33342 accumulation (AcrAB-TolC efflux pump): increased H33342 accumulation

Compound: CCN1CCN(C(=O)N[C@@H](C(=O)N[C@@H]2C(=O)N3[C@@H]2SC(C)(C)[C@@H]3C(=O)O)c2ccccc2)C(=O)C1=O [Piperacillin, piperacillin]
- MIC ([1]; WT, MBX2319 0 μM, read-out: MIC (μg/ml) with MBX2319 at concn (μM) of: 0): 4 µg/mL
- MIC (μg/ml) with MBX2319 at concn (μM) of: 1.56 ([1]; WT, MBX2319 1.56 μM): 2 µg/mL
- MIC (μg/ml) with MBX2319 at concn (μM) of: 3.13 ([1]; WT, MBX2319 3.13 μM): 1 µg/mL
- MIC (μg/ml) with MBX2319 at concn (μM) of: 6.25 ([1]; WT, MBX2319 6.25 μM): 1 µg/mL
- MIC (μg/ml) with MBX2319 at concn (μM) of: 25 ([1]; WT, MBX2319 25 μM): 0.5 µg/mL
- MIC (μg/ml) with MBX2319 at concn (μM) of: 50 ([1]; WT, MBX2319 50 μM): 0.5 µg/mL
- MIC (μg/ml) with MBX2319 at concn (μM) of: 12.5 ([1]; WT, MBX2319 […]): 0.5 µg/mL
- MIC ratios mutant ([1]; WT, MIC (WT)/MIC (mutant) in the absence of EPI): 1
- MIC ratios 2319 ([1]; WT, highest ratio of MIC (no compound)/MIC (MBX2319)): 8
- MIC [2, 10]: 0.25 µg/mL
- MIC (μg/ml) with MBX2319 at concn (μM) of: 1.56 ([2]; ΔacrB, MBX2319 1.56 μM): 0.125 µg/mL
- MIC (μg/ml) with MBX2319 at concn (μM) of: 3.13 ([2]; ΔacrB, MBX2319 3.13 μM): 0.125 µg/mL
- MIC (μg/ml) with MBX2319 at concn (μM) of: 6.25 ([2]; ΔacrB, MBX2319 6.25 μM): 0.125 µg/mL
- MIC (μg/ml) with MBX2319 at concn (μM) of: 25 ([2]; ΔacrB, MBX2319 25 μM): 0.125 µg/mL
- MIC (μg/ml) with MBX2319 at concn (μM) of: 50 ([2]; ΔacrB, MBX2319 50 μM): 0.125 µg/mL
- MIC (μg/ml) with MBX2319 at concn (μM) of: 12.5 ([2]; ΔacrB, MBX2319 […]): 0.125 µg/mL
- MIC ratios mutant ([2]; ΔacrB, MIC (WT)/MIC (mutant) in the absence of EPI): 16
- MIC ratios 2319 ([2]; ΔacrB, highest ratio of MIC (no compound)/MIC (MBX2319)): 2
- MIC [3, 10]: 4 µg/mL
- MIC (μg/ml) with MBX2319 at concn (μM) of: 1.56 ([3]; ΔacrF, MBX2319 1.56 μM): 2 µg/mL
- MIC (μg/ml) with MBX2319 at concn (μM) of: 3.13 ([3]; ΔacrF, MBX2319 3.13 μM): 1 µg/mL
- MIC (μg/ml) with MBX2319 at concn (μM) of: 6.25 ([3]; ΔacrF, MBX2319 6.25 μM): 0.5 µg/mL
- MIC (μg/ml) with MBX2319 at concn (μM) of: 25 ([3]; ΔacrF, MBX2319 25 μM): 0.5 µg/mL
- MIC (μg/ml) with MBX2319 at concn (μM) of: 50 ([3]; ΔacrF, MBX2319 50 μM): 0.5 µg/mL
- MIC (μg/ml) with MBX2319 at concn (μM) of: 12.5 ([3]; ΔacrF, MBX2319 […]): 0.5 µg/mL
- MIC ratios mutant ([3]; ΔacrF, MIC (WT)/MIC (mutant) in the absence of EPI): 1
- MIC ratios 2319 ([3]; ΔacrF, highest ratio of MIC (no compound)/MIC (MBX2319)): 8
- MIC [4, 10]: 0.125 µg/mL
- MIC (μg/ml) with MBX2319 at concn (μM) of: 1.56 ([4]; ΔtolC, MBX2319 1.56 μM): 0.125 µg/mL
- MIC (μg/ml) with MBX2319 at concn (μM) of: 3.13 ([4]; ΔtolC, MBX2319 3.13 μM): 0.125 µg/mL
- MIC (μg/ml) with MBX2319 at concn (μM) of: 6.25 ([4]; ΔtolC, MBX2319 6.25 μM): 0.125 µg/mL
- MIC (μg/ml) with MBX2319 at concn (μM) of: 25 ([4]; ΔtolC, MBX2319 25 μM): 0.125 µg/mL
- MIC (μg/ml) with MBX2319 at concn (μM) of: 50 ([4]; ΔtolC, MBX2319 50 μM): 0.125 µg/mL
- MIC (μg/ml) with MBX2319 at concn (μM) of: 12.5 ([4]; ΔtolC, MBX2319 […]): 0.125 µg/mL
- MIC ratios mutant ([4]; ΔtolC, MIC (WT)/MIC (mutant) in the absence of EPI): 32
- MIC ratios 2319 ([4]; ΔtolC, highest ratio of MIC (no compound)/MIC (MBX2319)): 1
- MIC (μg/ml) with MBX2319 at concn (μM) of: 1.56 ([5]; 285, MBX2319 1.56 μM): 4 µg/mL
- MIC (μg/ml) with MBX2319 at concn (μM) of: 3.13 ([5]; 285, MBX2319 3.13 μM): 2 µg/mL
- MIC (μg/ml) with MBX2319 at concn (μM) of: 6.25 ([5]; 285, MBX2319 6.25 μM): 2 µg/mL
- MIC (μg/ml) with MBX2319 at concn (μM) of: 25 ([5]; 285, MBX2319 25 μM): 2 µg/mL
- MIC (μg/ml) with MBX2319 at concn (μM) of: 50 ([5]; 285, MBX2319 50 μM): 2 µg/mL
- MIC (μg/ml) with MBX2319 at concn (μM) of: 12.5 ([5]; 285, MBX2319 […]): 2 µg/mL
- MIC ratios mutant ([5]; 285, MIC (WT)/MIC (mutant) in the absence of EPI): 0.5
- MIC ratios 2319 ([5]; 285, highest ratio of MIC (no compound)/MIC (MBX2319)): 4
- MIC [5, 10]: 8 µg/mL
- MIC (μg/ml) with MBX2319 at concn (μM) of: 1.56 ([6]; 287, MBX2319 1.56 μM): 8 µg/mL
- MIC (μg/ml) with MBX2319 at concn (μM) of: 3.13 ([6]; 287, MBX2319 3.13 μM): 4 µg/mL
- MIC (μg/ml) with MBX2319 at concn (μM) of: 6.25 ([6]; 287, MBX2319 6.25 μM): 4 µg/mL
- MIC (μg/ml) with MBX2319 at concn (μM) of: 25 ([6]; 287, MBX2319 25 μM): 2 µg/mL
- MIC (μg/ml) with MBX2319 at concn (μM) of: 50 ([6]; 287, MBX2319 50 μM): 2 µg/mL
- MIC (μg/ml) with MBX2319 at concn (μM) of: 12.5 ([6]; 287, MBX2319 […]): 2 µg/mL
- MIC ratios mutant ([6]; 287, MIC (WT)/MIC (mutant) in the absence of EPI): 0.25
- MIC ratios 2319 ([6]; 287, highest ratio of MIC (no compound)/MIC (MBX2319)): 8
- MIC [6, 10]: 16 µg/mL
- MIC ([9]; Escherichia coli, read-out: MICs (μg/ml) ΔacrB None): 0.25 µg/mL
- MIC Ratio ΔacrB ([9]; MIC WT/MIC ΔacrB): 16
